Drawing on patent US8546608B2, “Proteasome inhibitors and methods of using the same” (Cephalon, Inc., priority 2003, dated 2013), this text covers IC50 and EC50 for 16 compounds.

Assay [1] addresses T1, 20S Human Erythrocyte Proteasome (HEP) (Homo sapiens, UniProt P20618+P28074).
T1 construct: 20S Human Erythrocyte Proteasome (HEP), purchased from Immatics Biotechnologies Inc; purchased Immatics Biotechnologies Inc., Tübingen, Germany; host or cells: human erythrocytes (natural source)
The assay is described as follows: Chymotrypsin-like activity of 20S Human Erythrocyte Proteasome (HEP), IC50 determination. The format is biochemical. As to conditions: assay of Example C, inhibition of HEP. The protocol: Assay for Chymotrypsin-like Activity of 20S Human Erythrocyte Proteasome (HEP)
Proteasome chymotrypsin-like activity of compounds of the invention was assayed according to the following procedure.
In 96-well microtiter plates, 20S Human Erythrocyte Proteasome (HEP), purchased from Immatics Biotechnologies Inc., Tübingen, Germany was plated at 0.2 μg/mL (about 0.6 nM catalytic sites) in 0.04% SDS 20 mM Tris buffer. A fluorimetric substrate Suc-LLVY-AMC (succinyl-Leu-Leu-Val-Tyr-7-amido-4-methylcoumarin), purchased from Sigma Inc., St. Louis, Mo., USA was added to a final concentration of 100 μM from a stock solution of 10 mM in dimethylsulfoxide. Reaction volumes were 100 μl per well. […] Proteasome activity was determined under conditions in which substrate hydrolysis increased linearly with time and the change in fluorescence signal was proportional to the concentration of free AMC.
Determination of IC50 Values for HEP and α-Chymotrypsin Inhibitors
Inhibition of the chymotrypsin-like activity of HEP and of bovine α-chymotrypsin was determined by incubating the enzyme with various concentrations of putative inhibitors for 15 minutes at 37° C. (or room temperature for α-chymotrypsin) prior to the addition of substrate. Each experimental condition was evaluated in triplicate, and replicate experiments were performed for the inhibitors described herein.

Assay [2] addresses T2, proteasome in Molt-4 cells (human leukemia) (Homo sapiens, UniProt P20618+P28074).
T2 sequence (P28074 60-263): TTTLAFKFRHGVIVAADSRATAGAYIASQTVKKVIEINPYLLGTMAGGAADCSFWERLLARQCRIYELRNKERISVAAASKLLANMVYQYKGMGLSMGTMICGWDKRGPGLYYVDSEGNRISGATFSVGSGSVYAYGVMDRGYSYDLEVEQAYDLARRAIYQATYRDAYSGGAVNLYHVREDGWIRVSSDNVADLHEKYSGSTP
T2 sequence (P20618 29-241): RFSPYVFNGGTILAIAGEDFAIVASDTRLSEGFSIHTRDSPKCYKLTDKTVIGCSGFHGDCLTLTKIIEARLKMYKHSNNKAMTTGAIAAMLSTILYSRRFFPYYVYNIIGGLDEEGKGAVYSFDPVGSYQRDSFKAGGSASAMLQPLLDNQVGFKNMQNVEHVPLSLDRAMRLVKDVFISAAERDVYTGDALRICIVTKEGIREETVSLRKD
The assay is classed as cell-based. As to conditions: assay of Example E, inhibition of MOLT4; read-out: MOLT4 (EC50). The protocol:
Cellular Assay for Chymotrypsin-like activity of Proteasome in Molt-4 Cell Line
The chymotrypsin-like activity of proteasome in Molt-4 cells (human leukemia) was assayed according to the following procedure. A brief description of the method was published previously (Harding et al., J. Immunol., 1995, 155, 1767).
Molt-4 cells were washed and resuspended in HEPES-buffered Saline (5.4 mM KCl, 120 mM NaCl, 25 mM Glucose, 1.5 mM MgSO4, 1 mM Na pyruvate, 20 mM Hepes) and plated in 96-well microtiter white plates to a final concentration of 6×10^6 cells/mL. Then various 5× proteasome inhibitor concentrations (or diluted DMSO for controls), prepared from 250×DMSO solutions by diluting 50-fold using HEPES-buffered saline, were added to the plate to a final 1× concentration. After 15 minutes incubation at 37° C., a fluorimetric cell permeable substrate (MeOSuc-FLF-AFC) (methoxysuccinyl-Phe-Leu-Phe-7-amido-4-trifluoromethylcoumarin) purchased from Enzyme Systems Products, catalogue number AFC-88, was added to each well at a final concentration of 25 μM from a stock solution of 20 mM in DMSO. Reaction volumes were 100 μl per well.
The concentration of free AFC was monitored every 1.5 min for 30 min ([…]) on a Polastar Optima, BMG Labtechnologies microplate reader, using an excitation wavelength of 390 nm and emission wavelength of 520 nm. Proteasome activity was determined under conditions in which substrate hydrolysis increased linearly with time and the change in fluorescent signal was proportional to the concentration of free AFC.
Determination of EC50 Values for Proteasome Inhibitors in MOLT-4 Cell Line
Inhibition of chymotrypsin-like activity of proteasome in Molt-4 cells was determined by incubating cells with various concentrations of putative inhibitors for 15 minutes at 37° C. prior to the addition of substrate. Each experimental condition was evaluated in triplicate, and replicate experiments were performed for the inhibitors described herein.

As for `CC(C)C[C@H](NC(=O)[C@@H](NS(=O)(=O)c1ccc2ccccc2c1)[C@@H](C)O)B(O)O` [E.3.4, Boronic acid, [(1R)-1-[[(2S,3R)-3-hydroxy-2-[(naphthalene-2-sulfonyl)amino]-1-oxobutyl]amino]-3-methylbutyl]], in assay [1], the IC50 (usually the concentration that gives 50% inhibition) was less than 100 nM. Further, the EC50 (commonly the midpoint of the concentration-response curve) in assay [2] is less than 200 nM.

In assay [1], `CC(C)C[C@H](NC(=O)[C@H](CCCNC(=N)N[N+](=O)[O-])NC(=O)CCCCCCCCCCCN1C(=O)c2ccccc2C1=O)B1O[C@@H]2C[C@@H]3C[C@@H](C3(C)C)[C@]2(C)O1` [D.3.189, 12-(1,3-Dioxo-1,3-dihydro-isoindol-2-yl)-dodecanamide, N-[(1S)-1-[[[(1R)-1-[(3aS,4S,6S,7aR)-hexahydro-3a,5,5-trimethyl-4,6-methano-1,3,2-benzodioxaborol-2-yl]-3-methylbutyl]amino]carbonyl]-4-[[imino(nitroamino)methyl]amino]butyl]] yielded an IC50 of less than 10 nM. The half-maximal effective concentration (EC50) in assay [2] was less than 200 nM.

The compound `CC(C)C[C@H](NC(=O)[C@H](CCCNC(=N)N[N+](=O)[O-])NC(=O)CCSc1ccc2ccccc2c1)B(O)O` [E.2.48, Boronic acid, [(1R)-1-[[(2S)-5-[[imino(nitroamino)methyl]amino]-2-[[3-(naphthalen-2-ylsulfanyl)-propanoyl]amino]-1-oxopentyl]amino]-3-methylbutyl]] returned a concentration for half-maximal inhibition (IC50) in assay [1] of less than 10 nM. Besides, the concentration giving a half-maximal response (EC50) in assay [2] fell in the range of 200 to 2000 nM.

In assay [1], `COc1ccc2cc([C@H](C)C(=O)N[C@@H](CCCNC(=N)N[N+](=O)[O-])C(=O)N[C@@H](CC(C)C)B3O[C@@H]4C[C@@H]5C[C@@H](C5(C)C)[C@]4(C)O3)ccc2c1` [D.3.93, (2S)-2-(6-Methoxynaphthalen-2-yl)-propanamide,N-[(1S)-1-[[[(1R)-1-[(3aS,4S,6S,7aR)-hexahydro-3a,5,5-trimethyl-4,6-methano-1,3,2-benzodioxaborol-2-yl]-3-methylbutyl]amino]carbonyl]-4-[[imino(nitroamino)methyl]amino]butyl]] came in with an IC50 of less than 10 nM. The 50% effective concentration (EC50) in assay [2] is less than 200 nM.

As to `CC(C)C[C@H](NC(=O)[C@@H](NC(=O)CCCCCCCCCN1C(=O)c2ccccc2C1=O)[C@@H](C)O)B(O)O` [E.1.18, Boronic acid, [(1R)-1-[[(2S,3R)-3-hydroxy-2-[[10-(1,3-dioxo-1,3-dihydro-isoindol-2-yl)-decanoyl]amino]-1-oxobutyl]amino]-3-methylbutyl]], in assay [1], the 50% inhibitory concentration (IC50) is less than 10 nM. In addition, in assay [2], the EC50 was less than 200 nM.

`Cc1ccc(C)c(CC(=O)N[C@@H](CCCNC(=N)N[N+](=O)[O-])C(=O)N[C@@H](CC(C)C)B(O)O)c1` [E.2.56, Boronic acid, [(1R)-1-[[(2S)-5-[[imino(nitroamino)methyl]amino]-2-[[2-(2,5-dimethylphenyl)acetyl]amino]-1-oxopentyl]amino]-3-methylbutyl]] returned an IC50 in assay [1] of less than 10 nM. The EC50 in assay [2] lay within 2000 to 10000 nM.

The compound `CC(C)C[C@H](NC(=O)[C@H](CCCNC(=N)N[N+](=O)[O-])NC(=O)CCCCCCC(=O)c1ccccc1)B1O[C@@H]2C[C@@H]3C[C@@H](C3(C)C)[C@]2(C)O1` [D.3.125, 8-Oxo-8-phenyloctanamide,N-[(1S)-1-[[[(1R)-1-[(3aS,4S,6S,7aR)-hexahydro-3a,5,5-trimethyl-4,6-methano-l,3,2-benzodioxaborol-2-yl]-3-methylbutyl]amino]carbonyl]-4-[[imino(nitroamino)methyl]amino]butyl]] showed a half-maximal inhibitory concentration (IC50) in assay [1] of less than 10 nM. The EC50 in assay [2] was less than 200 nM.

For `CCCCCCCCS(=O)(=O)N[C@@H](CCCNC(=N)N[N+](=O)[O-])C(=O)N[C@@H](CC(C)C)B1O[C@@H]2C[C@@H]3C[C@@H](C3(C)C)[C@]2(C)O1` [D.4.4, Octanesulfonamide, N-[(1S)-1-[[[(1R)-1-[(3aS,4S,6S,7aR)-hexahydro-3a,5,5-trimethyl-4,6-methano-1,3,2-benzodioxaborol-2-yl]-3-methylbutyl]amino]carbonyl]-4-[[imino(nitroamino)methyl]amino]butyl]], the IC50 in assay [1] was less than 10 nM. The EC50 in assay [2] was less than 200 nM.

`CCCCC(C)(C)C(=O)N[C@@H](CCCNC(=N)N[N+](=O)[O-])C(=O)N[C@@H](CC(C)C)B(O)O` [D.7.21, Boronic acid, [(1R)-1-[[(2S)-5-[[imino(nitroamino)methyl]amino]-2-[(2,2-dimethylhexanoyl)amino]-1-oxopentyl]amino]-3-methylbutyl]] registered an IC50 in assay [1] of less than 10 nM. For the same compound, the EC50 in assay [2] lay within 2000 to 10000 nM.

Take `Cc1nc(C)c(C(=O)N[C@@H](CCCNC(=N)N[N+](=O)[O-])C(=O)N[C@@H](CC(C)C)B(O)O)s1` [E.2.27, Boronic acid, [(1R)-1-[[(2S)-5-[[imino(nitroamino)methyl]amino]-2-[(2,4-dimethylthiazole-5-carbonyl)amino]-1-oxopentyl]amino]-3-methylbutyl]]: the concentration for half-maximal inhibition (IC50) in assay [1] is less than 10 nM. Also, the EC50 in assay [2] was greater than 10000 nM.

`CC(C)C[C@H](NC(=O)[C@H](CCCNC(=N)N[N+](=O)[O-])NC(=O)COc1ccc2ccccc2c1)B1O[C@@H]2C[C@@H]3C[C@@H](C3(C)C)[C@]2(C)O1` [D.3.27, 2-[(Naphthalen-2-yl)oxy]acetamide,N-[(1S)-1-[[[(1R)-1-[(3aS,4S,6S,7aR)-hexahydro-3a,5,5-trimethyl-4,6-methano-1,3,2-benzodioxaborol-2-yl]-3-methylbutyl]amino]carbonyl]-4-[[imino(nitroamino)methyl]amino]butyl]]: the half-maximal inhibitory concentration (IC50) in assay [1] is less than 10 nM. For the same compound, the half-maximal effective concentration (EC50) in assay [2] is less than 200 nM.

As for `CCOC(=O)/C=C/C(=O)N[C@@H](CCCNC(=N)N[N+](=O)[O-])C(=O)N[C@@H](CC(C)C)B1O[C@@H]2C[C@@H]3C[C@@H](C3(C)C)[C@]2(C)O1` [D.1.8, (E)-3-(Ethoxycarbonyl)acrylamide,N-[(1S)-1-[[[(1R)-1-[(3aS,4S,6S,7aR)-hexahydro-3a,5,5-trimethyl-4,6-methano-1,3,2-benzodioxaborol-2-yl]-3-methylbutyl]amino]carbonyl]-4-[[imino(nitroamino)methyl]amino]butyl]], in assay [1], the concentration for half-maximal inhibition (IC50) is less than 10 nM. In addition, the concentration giving a half-maximal response (EC50) in assay [2] lay within 200 to 2000 nM.

As to `COCCOCC(=O)NCC(=O)N[C@@H](CCCNC(=N)N[N+](=O)[O-])C(=O)N[C@@H](CC(C)C)B1O[C@@H]2C[C@@H]3C[C@@H](C3(C)C)[C@]2(C)O1` [D.2.6], the IC50 in assay [1] is less than 100 nM. Moreover, in assay [2], the concentration for a half-maximal effect (EC50) was in the range of 2000 to 10000 nM.

As for `CC(C)C[C@H](NC(=O)[C@H](CCCNC(=N)N[N+](=O)[O-])NC(=O)CCCCc1ccc(F)cc1)B(O)O` [D.7.20, Boronic acid, [(1R)-1-[[(2S)-5-[[imino(nitroamino)methyl]amino]-2-[[5-(4-fluorophenyl)pentanoyl]amino]-1-oxopentyl]amino]-3-methylbutyl]], in assay [1], the half-maximal inhibitory concentration (IC50) is less than 10 nM. Further, the EC50 in assay [2] was 2000 to 10000 nM.

`CC(C)C[C@H](NC(=O)[C@H](CCCNC(=N)N[N+](=O)[O-])NC(=O)COc1ccc(C(C)C)cc1)B1O[C@@H]2C[C@@H]3C[C@@H](C3(C)C)[C@]2(C)O1` [D.3.54] displayed a 50% inhibitory concentration (IC50) in assay [1] of less than 10 nM. For the same compound, in assay [2], the EC50 is less than 200 nM.

`CC(C)C[C@H](NC(=O)[C@H](CCCNC(=N)N[N+](=O)[O-])NC(=O)Cc1ccccc1)B1O[C@@H]2C[C@@H]3C[C@@H](C3(C)C)[C@]2(C)O1` [D.3.3] gave a half-maximal inhibitory concentration (IC50) in assay [1] of less than 10 nM. Also, in assay [2], the concentration for a half-maximal effect (EC50) fell in the range of 200 to 2000 nM.
